Measured values as given in ChEMBL document CHEMBL4602605, “Fluoroquinolones structural and medicinal developments (2013-2018): Where are we now?” (Bioorg Med Chem, 2019).
Converted amounts (≈) assume the structure as drawn.

Tests used:
Assay type in all cases: functional
Staphylococcus aureus [1] = test: Antimicrobial activity against gentamicin-resistant Staphylococcus aureus ATCC 33592 incubated for 24 hrs by CLSI-based broth microdilution method; conditions: ATCC 33592, 24 h
Staphylococcus aureus [2] = test: Antimicrobial activity against Staphylococcus aureus ATCC 29213 incubated for 24 hrs by CLSI-based dilution method; conditions: ATCC 29213, 24 h
Staphylococcus aureus [3] = test: Antimicrobial activity against methicillin-resistant Staphylococcus aureus ATCC 700699 incubated for 24 hrs by CLSI-based broth microdilution method; conditions: ATCC 700699, 24 h
Klebsiella pneumoniae = test: Antimicrobial activity against Klebsiella pneumoniae ATCC 27736 incubated for 24 hrs by CLSI-based broth microdilution method; conditions: ATCC 27736, 24 h
Staphylococcus aureus [4] = test: Antimicrobial activity against Staphylococcus aureus ATCC 25923 incubated for 24 hrs by CLSI-based dilution method; conditions: ATCC 25923, 24 h
Pseudomonas aeruginosa [5] = test: Antimicrobial activity against Pseudomonas aeruginosa ATCC BAA-427 incubated for 24 hrs by CLSI-based broth microdilution method; conditions: ATCC BAA-427, 24 h
Escherichia coli = test: Antimicrobial activity against Escherichia coli ATCC 9637 incubated for 24 hrs by CLSI-based broth microdilution method; conditions: W ATCC 9637, 24 h
Enterococcus faecalis = test: Antimicrobial activity against Enterococcus faecalis ATCC 29212 incubated for 18 to 24 hrs by microbroth dilution method
Bacillus cereus = test: Antimicrobial activity against Bacillus cereus 709 Roma incubated for 18 to 24 hrs by microbroth dilution method
[6] = tested on: Mycolicibacterium smegmatis; test: Antimicrobial activity against Mycobacterium smegmatis ATCC 607 incubated for 48 to 72 hrs by microbroth dilution method
[7] = tested on: Yersinia pseudotuberculosis; test: Antimicrobial activity against Yersinia pseudotuberculosis ATCC 911 incubated for 18 to 24 hrs by microbroth dilution method
Pseudomonas aeruginosa [8] = test: Antimicrobial activity against Pseudomonas aeruginosa ATCC 43288 incubated for 18 to 24 hrs by microbroth dilution method
Staphylococcus aureus [9] = test: Antimicrobial activity against Staphylococcus aureus ATCC 25923 incubated for 18 to 24 hrs by microbroth dilution method

| SMILES | MIC (Staphylococcus aureus [1]) [µg/mL] | MIC (Staphylococcus aureus [2]) [µg/mL] | MIC (Staphylococcus aureus [3]) [µg/mL] | MIC (Klebsiella pneumoniae) [µg/mL] | MIC (Staphylococcus aureus [4]) [µg/mL] | MIC (Pseudomonas aeruginosa [5]) [µg/mL] | MIC (Escherichia coli) [µg/mL] | MIC (Enterococcus faecalis) [µg/mL] | MIC (Bacillus cereus) [µg/mL] | MIC [6] [µg/mL] | MIC [7] [µg/mL] | MIC (Pseudomonas aeruginosa [8]) [µg/mL] | MIC (Staphylococcus aureus [9]) [µg/mL] |
| --- | --- | --- | --- | --- | --- | --- | --- | --- | --- | --- | --- | --- | --- |
| CCn1cc(C(=O)O)c(=O)c2cc(F)c(-n3cc(CO[C@H]4O[C@H](COC(C)=O)[C@@H](OC(C)=O)[C@H](OC(C)=O)[C@H]4OC(C)=O)nn3)c(F)c21 | > 50 | > 50 | > 50 | > 50 | > 50 | > 50 | > 50 | – | – | – | – | – | – |
| CCn1cc(C(=O)O)c(=O)c2cc(F)c(N3CCN(Cn4nc(CN5CCN(c6ccc([N+](=O)[O-])cc6)CC5)n(-c5ccccc5)c4=O)CC3)cc21 | – | – | – | – | – | – | – | 0.122 (≈ 0.171 µM) | 0.03 to 0.25 (≈ 0.0421 to 0.351 µM) | 0.244 to 0.25 (≈ 0.343 to 0.351 µM) | 0.03 to 0.25 (≈ 0.0421 to 0.351 µM) | 0.24 to 0.48 (≈ 0.337 to 0.674 µM) | 0.24 to 0.48 (≈ 0.337 to 0.674 µM) |
| CCn1cc(C(=O)O)c(=O)c2cc(F)c(-n3cc(CO[C@H]4O[C@H](COC(C)=O)[C@@H](OC(C)=O)[C@H](OC(C)=O)[C@H]4NC(C)=O)nn3)c(F)c21 | 6.25 (≈ 9.2 µM) | 6.25 (≈ 9.2 µM) | > 50 | 6.25 (≈ 9.2 µM) | 6.25 (≈ 9.2 µM) | > 50 | 12.5 (≈ 18.4 µM) | – | – | – | – | – | – |
| CCn1cc(C(=O)O)c(=O)c2cc(F)c(-n3cc(CO[C@H]4OC[C@@H](OC(C)=O)[C@@H](OC(C)=O)[C@H]4OC(C)=O)nn3)c(F)c21 | 3.12 (≈ 5.13 µM) | 3.12 (≈ 5.13 µM) | > 50 | 3.12 (≈ 5.13 µM) | 3.12 (≈ 5.13 µM) | > 50 | 6.25 (≈ 10.3 µM) | – | – | – | – | – | – |
| CCn1cc(C(=O)O)c(=O)c2cc(F)c(-n3cc(CO[C@H]4O[C@H](COC(C)=O)[C@@H](OC(C)=O)[C@H](OC(C)=O)[C@@H]4OC(C)=O)nn3)c(F)c21 | 12.5 (≈ 18.4 µM) | 12.5 (≈ 18.4 µM) | > 50 | 25 (≈ 36.7 µM) | 12.5 (≈ 18.4 µM) | > 50 | 50 (≈ 73.5 µM) | – | – | – | – | – | – |
| CCn1cc(C(=O)O)c(=O)c2cc(F)c(-n3cc(CO[C@H]4O[C@H](COC(C)=O)[C@H](OC(C)=O)[C@H](OC(C)=O)[C@H]4OC(C)=O)nn3)c(F)c21 | > 50 | > 50 | > 50 | > 50 | > 50 | > 50 | 12.5 (≈ 18.4 µM) | – | – | – | – | – | – |
| CCn1cc(C(=O)O)c(=O)c2cc(F)c(N3CCN(Cn4nc(CN5CCN(c6ccc([N+](=O)[O-])cc6)CC5)n(-c5ccc(F)cc5)c4=O)CC3)cc21 | – | – | – | – | – | – | – | 0.122 (≈ 0.167 µM) | 0.12 (≈ 0.164 µM) | 0.244 (≈ 0.334 µM) | 0.12 (≈ 0.164 µM) | 0.24 (≈ 0.329 µM) | 0.48 (≈ 0.658 µM) |
| CCn1cc(C(=O)O)c(=O)c2cc(F)c(-n3cc(CO[C@H]4OC[C@@H](OC(C)=O)[C@@H](OC(C)=O)[C@@H]4OC(C)=O)nn3)c(F)c21 | 6.25 (≈ 10.3 µM) | 6.25 (≈ 10.3 µM) | > 50 | 6.25 (≈ 10.3 µM) | 6.25 (≈ 10.3 µM) | > 50 | 12.5 (≈ 20.5 µM) | – | – | – | – | – | – |
| CCn1cc(C(=O)O)c(=O)c2cc(F)c(-n3cc(CO[C@H]4OC[C@@H](OC(C)=O)[C@H](OC(C)=O)[C@H]4OC(C)=O)nn3)c(F)c21 | 12.5 (≈ 20.5 µM) | 12.5 (≈ 20.5 µM) | > 50 | 25 (≈ 41.1 µM) | 12.5 (≈ 20.5 µM) | > 50 | 12.5 (≈ 20.5 µM) | – | – | – | – | – | – |
